This note sets out measurements from US20020143012A1, “Phenoxazine analogs useful as amyloid aggregation inhibitors and treatment of alzheimer's disease and disorders related to amyloidosis” (priority 2000, published 2002).

“And” between values parts separate entries of the source, which are not always exact repeats. Identical values can stand only once. Like-named read-outs stand apart in the source and are kept apart here.

For data set [1], the target named is T1, Aβ(1-40) (Homo sapiens, UniProt P05067).
T1 construct: Soluble Aβ(1-40) peptide (Bachem, Torrance, Calif.); purchased Bachem, Torrance, Calif
T1 sequence (P05067 672-711): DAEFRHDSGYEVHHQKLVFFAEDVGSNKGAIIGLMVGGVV
The experiment in a line: BASSR (Beta-Amyloid Self-Seeding Radioassay), inhibitors of self-seeded amyloid fibril growth. Type of data set: biochemical. The following applies: 30 μM soluble Aβ(1-40), 125I-labeled Aβ(1-40), 37° C. 3 to 5 hours; replicate values; ppt = precipitate formed at the indicated concentration. The protocol: 1. BASSR (Beta-Amyloid Self-Seeding Radioassay)
(§1) An assay for inhibitors of self-seeded amyloid fibril growth
(§2) Assay Buffer—50 mM sodium phosphate, pH 7.5, 100 mM NaCl, 0.02% NaN3, 1 M urea (filter and store at 4° C.)
Soluble Aβ(1-40) peptide (Bachem, Torrance, Calif.)—2.2 mg/mL in […] deionized H2O (is stored in aliquots at −20° C.; is kept on ice when thawed) will self-seed after 1 week storage. Typically, the solution is stored until no lag phase is seen in the assay.
^125I-labeled Aβ(1-40)—150K to 350K cpm/μL in 100% acetonitrile−0.1% trifluoroacetic acid (TFA)—1% β-mercaptoethanol (aliquots stored at −20° C). ^125I-labeled Aβ(1-40) is made in accordance with the procedure set forth by LeVine H., III, in Neurobiol. Aging, 1995;16:755, which is hereby incorporated by reference, or this reagent may be purchased from Amersham, Arlington Heights, Ill.
Final assay conditions: 30 μM soluble Aβ(1-40) in deionized water in assay buffer+20K to 50K cpm ^125I-labeled Aβ (1-40) per assay. Compound to be tested is dissolved in dimethylsulfoxide (DMSO), typically 5 to 50 mM stock, such that the final concentration of DMSO is<1% v/v in the assay.
Assay: Reaction mixture for 50 assays (on ice) is comprised of 0.1 to 0.2 μL of ^125I-labeled A^125I-labeled Aβ(1-40)+1 μL of soluble Aβ(1-40)+13.5 μL assay buffer per assay. The following are the amounts of the components of the reaction mixture sufficient for 50 assay wells.
1) The reaction mixture of above is prepared by mixing components and storing on ice.
b 2) 14.5 μL of the reaction mixture is pipetted into each of 50 wells on a polypropylene U-bottom 96-well microtiter plate on ice (Costar 3794).
(§3) 3) 1.7 μL of diluted compound to be tested is added to each well in a column of eight, including solvent control. Serial 3-fold dilutions from 1 mM (100 μM final) in assay buffer−urea=7 dilutions+zero. Each 96-well plate can therefore accommodate 11 samples+1 Congo Red control (0.039-5 μM final in 2-fold steps).
4) The plate with aluminum film (Beckman 538619) is sealed and incubated for 10 minutes on ice.
(§4) 5) The temperature is raised to 37° C. and incubated for 3 to 5 hours (depending on the lot of the peptide).
6) The aluminum film is removed and 200 μL/well of ice cold assay buffer with urea is added. The radiolabeled fibrils are collected by vacuum filtration through 0.2 μm pore size GVWP filters in 96-well plates (Millipore MAGV N22, Bedford, Mass.). The radioactivity of the filters is determined by using standard methods well-known to those skilled in the art.

Data set [2] addresses T1, Aβ(1-40). In words: BASST (Beta-Amyloid Self-seeding, Thioflavin T), inhibitors of self-seeded amyloid fibril growth. As to conditions: 30 μM soluble Aβ(1-40), 37° C. 3 to 5 hours, thioflavin T fluorescence; replicate values. Format: biochemical. The protocol: 2. BASST (Beta-Amyloid Self-seeding, Thioflavin T)
as §1, §2
Soluble Aβ(1-40)—2.2 mg/mL in deionized H2O (is stored in aliquots at −20° C.; is kept on ice when thawed) will self-seed after 1 week storage. Typically, the solution is stored until no lag phase is seen in the assay.
Final assay conditions: 30 μM soluble Aβ(1-40) in deionized water in assay buffer. Compound to be tested is dissolved in DMSO, typically 5 to 50 mM stock, such that the final concentration of DMSO is<1% v/v in the assay.
Assay: Reaction mixture for 50 assays (on ice) is comprised of 1 μL of soluble Aβ(1-40)+13.5 μL assay buffer per assay. The following are the amounts of the components of the reaction mixture that result in each of the 50 assay wells.
1) The reaction mix above is prepared by mixing the components and storing on ice.
2) 14.5 μL of reaction mixture is pipetted into each of 50 wells of a polystyrene U-bottom, 96-well microtiter plate (Corning 25881-96) on ice.
as §3
4) The plate with aluminum film is sealed and incubated for 10 minutes on ice.
as §4
6) The aluminum film is removed and 250 μL/well of 5 μM thioflavin T (ThT) [T-3516, Sigma-Aldrich] is added in 50 mM glycine-NaOH, pH 8.5. Fluorescence is read on a plate reader (ex=440 nm/20 nm; em=485 nm/20 nm) within 5 minutes.

Data set [3] deals with T2, Aβ(1-40) peptide (Homo sapiens, UniProt P05067).
T2 construct: 10 μL 0.5 mg/mL Aβ(1-40) peptide in 20% HFIP
T2 sequence (P05067 672-711): as above
In words: BAPA (Beta-Amyloid Peptide Aggregation), pH 6.0, filtration endpoint. Format: biochemical. The protocol: 3. BAPA (Beta-Amyloid Peptide Aggregation)
This assay is used to provide a measure of inhibition by a compound against the aggregation behavior of the beta amyloid peptide.
The purpose of this assay is to provide a higher volume method of assaying the amount of beta amyloid aggregation using an endpoint assay based on filtration. In this assay, hexafluoroisopropanol (HFIP) is used to break down the initial amyloid peptide to a monomer state and a concentration of 33 μM is used, a concentration which is high enough so that aggregation will occur at pH 6.0 in several hours.
β-Amyloid Peptide Aggregation, pH 6.0 (BAPA)
To a 96-well plate (Costar 3794) is added 25 μL 50 mM Phosphate Buffer (pH 6.0), 10 μL 0.5 mg/mL Aβ(1-40) peptide in 20% HFIP+0.1 μL/assay radioiodinated ^125I Aβ(1-40) [^125I Aβ(1-40)], and 1 μL of the compound to be tested, starting at […] with a concentration of DMSO<1%. The reaction is incubated for 2 to 4 hours at room temperature. The reaction is stopped with 200 μL of 50 mM phosphate buffer, pH 6.0, and filtered through a 0.2 μm 96-well filter plate (Millipore MAGU N22). The filter plate is washed with 100 μL of the same phosphate buffer. Aggregation is detected on a Microbeta counter after impregnating the filters with Meltilex (1450-441) and is corrected for background.

Data set [4] addresses T3, Aβ(1-42) (Homo sapiens, UniProt P05067).
T3 construct: Required Aβ(1-42) (California Peptide) is dried from its hexafluoroisopropanol (HFIP) stock solution; purchased California Peptide
In words: BATYM assay, Aβ(1-42) aggregation by Thioflavin T fluorescence. Format: biochemical. The following applies: Aβ1-42 final concentration 100 μM, 37° C. 1 day, ThT fluorescence; (P)/(Q) marks undefined. The protocol: Required Aβ(1-42) (California Peptide) is dried from its hexafluoroisopropanol (HFIP) stock solution. The Aβ(1-42) is dissolved in DMSO and then mixed with phosphate buffered saline (PBS) (pH 7.4). The mixed Aβ(1-42) solution is filtered with a GVWP 0.22 μm syringe filter (Millipore, Bedford, Mass.). The compound to be tested in DMSO (50 times concentrate) is put into each well (0.5 μL/well) of a 96-well plate. The Aβ(1-42) solution is added into each well (25 μL/well). The plate is centrifuged at 1000 g for 5 minutes and incubated at 37° C. for 1 day (Aβ1-42; final concentration 100 μM).
After incubation Thioflavin T (ThT) (30 μM) solution in glycine-NaOH buffer (pH 8.5, 50 mM) is added into each well (250 μL/well), fluorescence is measured (ex=440/20 nm, em=485/20 nm) using a fluorescence plate reader. The inhibitory activity is calculated as the reduction of fluorescence with the following formula:
Inhibition (%)={(F(Aβ)−F(Aβ+compound)}/{F(Aβ)−F(solvent−compound)}×100.
The IC50s are calculated by a curve-fitting program using the equation given below. The data is obtained from two different experiments in triplicate.
x=concentration of tested compound (M),

Where [5] appears, read: marked (BAPA2), variant not described, read-out: BAPA (IC50 = μM), value marked (BAPA2).
Where [6] appears, read: 33 μM Aβ(1-40), pH 6.0, 2 to 4 hours at room temperature, (Q) mark undefined, read-out: BAPA (IC50 = μM).

T3 sequence (P05067 672-713): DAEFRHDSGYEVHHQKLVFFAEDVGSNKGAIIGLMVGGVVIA

One may read the IC50 as the concentration at which inhibition is half-maximal. `O=C(O)c1cc(OCc2ccccc2)cc2c1Nc1ccccc1O2` [Compound 4, 3-(Phenylmethoxy)phenoxazinecarboxylic acid]: the IC50 is 14 µM in data set [1]; 8.4 µM and 45 µM (2×) and 8.44 µM in data set [2]; more than 50 µM in data set [3] (setting [5]).
As a reminder, the melting point is the temperature of the solid-liquid transition. Consider `O=C(O)c1cc([N+](=O)[O-])cc2c1Nc1ccc(CCC(O)c3ccc(Cl)c(Cl)c3)cc1O2` (stereo not shown) [Compound 8, 7-[3-(3,4-Dichlorophenyl)-3-hydroxypropyl]-3-nitrophenoxazine carboxylic acid], for which the melting point lay within 218 to 220 °C. Further, in data set [1], the IC50 was > 100 µM and 100 µM (2×). For the same molecule, in data set [2], the IC50 is 0.6 µM. Moreover, the IC50 in data set [3] (setting [6]) was found to be 100 µM. In data set [4], this molecule came in with an IC50 of 4.18 µM.
Turning to “3-Nitrophenoxazinecarboxylic acid [Compound 3]”, the IC50 in data set [1] was 8 µM; in data set [2], 13 µM (2×) and 40 µM (2×) and 23 µM (2×); in data set [3] (setting [6]) it was 62 µM; in data set [3] (setting [5]) it was more than 100 µM.
`O=C(/C=C/c1ccc2c(c1)Oc1cc([N+](=O)[O-])cc(C(=O)O)c1N2)c1ccc(Cl)c(Cl)c1` [Compound 6, 7-[3-(3,4-Dichlorophenyl)-3-oxoprop-1-enyl]-3-nitrophenoxazinecarboxylic acid] came in with a melting point of more than 200 °C. For the same molecule, in data set [1], the IC50 is 21 µM and 22 µM and 25 µM. The molecule further had an IC50 in data set [2] of 1 µM. The IC50 in data set [3] (setting [6]) was more than 100 µM. In data set [4], this molecule gave an IC50 of 4.61 µM.
On to `O=C(O)c1cc([N+](=O)[O-])cc2c1Nc1cc3ccccc3cc1O2` [Compound 21, 3-nitrobenzo[b]phenoxazinecarboxylic acid], for which the melting point is more than 230 °C. The IC50 in data set [1] was 12 µM and 11 µM and 10 µM. The molecule also came in with a concentration for half-maximal inhibition (IC50) in data set [2] of 1 µM. Moreover, the IC50 in data set [3] (setting [6]) was determined as 67 µM. In data set [4], the IC50 amounted to 6.7 µM.
`O=C(O)c1cc([N+](=O)[O-])cc2c1Nc1ccc(CCc3ccc(Cl)c(Cl)c3)cc1O2` [Compound 5, 7-[2-(3,4-dichlorophenyl)ethyl]-3-nitrophenoxazinecarboxylic acid] registered a melting point of more than 250 °C. In addition, the IC50 in data set [1] was 60 µM and > 100 µM. In addition, the IC50 in data set [2] was 3 µM and 1 µM. In data set [3] (setting [6]), the IC50 came to 0.9 µM. The IC50 in data set [4] was 7.89 µM and 3.02 µM.
In the case of `O=C(O)c1cc([N+](=O)[O-])cc2c1Nc1ccc(CCCc3ccc(Cl)c(Cl)c3)cc1O2` [Compound 7, 7-[3-(3,4-Dichlorophenyl)propyl]-3-nitrophenoxazine carboxylic acid], the half-maximal inhibitory concentration (IC50) was 30 µM and 20 µM and 6 µM in data set [1]; 0.5 µM in data set [2]; more than 100 µM in data set [3] (setting [6]); 1.88 µM in data set [4].
Regarding `O=C(O)c1cc([N+](=O)[O-])cc2c1Nc1cc(-c3ccccc3)ccc1O2` [Compound 2, 3-nitro-8-phenylphenoxazinecarboxylic acid], the half-inhibitory concentration (IC50) in data set [1] is 60 µM (2×) and 70 µM; in data set [2], 1 µM; in data set [3] (setting [6]) it was 5 µM; in data set [4], 4.15 µM.
`Nc1cc2c(c(C(=O)O)c1)Nc1ccc(CCCc3ccc(Cl)c(Cl)c3)cc1O2` [Compound 9, 3-Amino-7-[3-(3,4-dichlorophenyl)propyl]phenoxazine carboxylic acid] registered a melting point of 213 to 216 °C. In data set [1], the IC50 is 60 µM and > 100 µM. Moreover, in data set [2], it took 3 µM to reach half-maximal inhibition (IC50). For the same molecule, in data set [3] (setting [6]), the IC50 was 86 µM. In data set [4], the IC50 came to 8.75 µM.
